Measurements taken from paper PMC10215143, “D- and N-Methyl Amino Acids for Modulating the Therapeutic Properties of Antimicrobial Peptides and Lipopeptides” (Antibiotics, 2023).
Converted amounts (≈) assume the structure as drawn. Like-named read-outs stand apart in the source and are kept apart here. Where a SMILES comes first, the peptide text is derived from it. Where no end group is shown, it is not given here. [ ]: non-standard residue; d: D form. The star is where a group is joined. Decanoyl = CCCCCCCCCC(=O)*

Legend:
[1] = system: S. aureus ATCC 25923; assay type: cell-based, Staphylococcus aureus
Description: (§1) The test was conducted in triplicate.

[2] = system: Yeast; settings: cited from earlier work
[3] = in vitro; settings: human, 50% (v/v) human serum in phosphate buffer, pH 7.2
Description: A 50% (v/v) human serum solution in phosphate buffer (pH: 7.2) was added to the peptide solution (concentration: 2 mg/mL) and incubated for 8 h at 37 °C. Aliquots were taken at different time points (0, 30, 60, 120, 240, 360, and 480 min) and serum proteins were immediately precipitated with a mixture of ACN-water-TFA (89:10:1). They were kept at 4 °C for 45 min and then centrifuged for 15 min at 10,000 rpm. The supernatants were then analyzed by HPLC-RP using a C18 analytical column (Beckman, Indianapolis, IN, USA). A linear gradient from 5% to 50% of ACN in H2O containing 0.1% TFA was used, at a flow rate of 0.8 mL/min. Absorbance was measured at 220 nm. […] The test was conducted in duplicate.

[4] = system: E. faecalis ATCC 29212; assay type: cell-based, Enterococcus faecalis
Description: as §1

[5] = at 200 μM; cited from earlier work
[6] = system: P. aeruginosa ATCC 27853; assay type: cell-based, Pseudomonas aeruginosa; settings: ATCC 27853, 24 h
Description: as §1

[7] = system: Gram (−) bacteria; settings: for MIC Average Bacteria Gram (−): average over Gram (−) strains; for TI Bacteria Gram (−), HC50/MIC average: first value of the cell, a single value holds for HC50 and IC50 (400 µM used); for TI Bacteria Gram (−), IC50/MIC average: second value of the cell, HeLa IC50 based
Description: (§2) The MIC against bacterial strains was determined by the modified broth microtiter dilution method, following the procedures proposed by R.E.W. Hancock Laboratory for testing antimicrobial peptides. The target strains Escherichia coli ATCC 35218, Pseudomonas aeruginosa ATCC 27853, Enterococcus faecalis ATCC 29212, and Staphylococcus aureus ATCC 25923 belong to the American Type Culture Collection (ATCC). The Methicillin-Resistant Staphylococcus aureus BSF FBCB1313 strain (MRSA) was provided by the Clinical Bacteriology Section of FBCB-UNL. All strains were activated by culture for 24 h at 37 °C in Mueller-Hinton Broth (MHB) (Biokar Diagnostics, Cedex, France). Each inoculum was taken and adjusted to a cellular concentration of 5 × 10^5 colony-forming units (CFU)/mL in diluted MHB. All the peptides were dissolved in bovine serum albumin buffer with the addition of 0.01% acetic acid; 100 µL of each inoculum was added to 11 µL of peptide solution in serial 2-fold dilutions and were incubated for 18–24 h at 37 °C. The MIC was the lowest peptide concentration that inhibited visible growth of each bacterial strain. The test was conducted in triplicate.
(§3) The TI is defined as the relationship between the concentration that caused 50% of hemolysis (HC50) or a 50% reduction in HeLa cell viability and the MIC. Thus, higher TI values indicate greater antimicrobial specificity. […] The average MIC for each peptide against different microorganism groups was used to calculate the TI value.

[8] = system: Gram (+) bacteria; settings: for MIC Average Bacteria Gram (+): average over Gram (+) strains; for TI Bacteria Gram (+), HC50/MIC average: first value of the cell, a single value holds for HC50 and IC50 (400 µM used); for TI Bacteria Gram (+), IC50/MIC average: second value of the cell, HeLa IC50 based
Description: as §2, §3

[9] = system: HeLa cells; settings: for IC50: 24 h
Description: We assessed the cytotoxicity of the compounds synthesized using HeLa cells.
The 3–4,5-dimethylthiazol-2,5-biphenyl tetrazolium bromide (MTT) cell viability assay was used to assess the cytotoxic activity of synthetic compounds against the human HeLa line. HeLa cells were seeded in 96-well plates at 1 × 10^5 cells/well, in which the peptide solution was added at different concentrations (3.125–400 μM) for 24 h of incubation. Next, MTT reagent (Sigma-Aldrich, St. Louis, MO, USA) was added, and the cells were incubated for 2 h. Then, 100 μL of dimethylsulfoxide (DMSO) was added to each well to dissolve formazan crystals, and the plates were read at 595 nm.

[10] = system: Human erythrocytes; assay: Hemolysis assay; assay type: cell-based; settings: human erythrocytes 0.4% (v/v), 37 °C, 60 min, 6.25 to 400 µM
Description: (§4) Hemolytic activity was determined using red blood cells and the hemoglobin released was measured at 405 nm. The percentage of hemolysis corresponding to the synthetic compounds is shown in Figure 1 while the HC50 values are provided in Table 3. […] Substitutions by N-methyl and D-amino acids reduced the hemolytic activity of the peptides and lipopeptides. […] For all the peptides and most of the lipopeptides, the HC50 values exceeded 400 μM. Indeed, the HC50 values were lower only for C10:0-A2(9-NMeLys) and C10:0-A2, which were around 300 and 200 μM, respectively.
(§5) Erythrocyte lysis was determined using the following previously optimized protocols. Human erythrocytes from a healthy voluntary donor were isolated by centrifugation (3000 rpm for 10 min) after washing three times with Physiological Solution (PS). Erythrocyte solutions were prepared at a concentration of 0.4% (v/v) in PS. Test tubes containing 200 µL of erythrocyte solution were incubated at 37 °C for 60 min with 200 µL of peptide solution at concentrations ranging from 6.25 to 400 µM. After centrifugation at 3000 rpm for 5 min, supernatant absorbance was measured at 405 nm. Lysis induced by 1% Triton X-100 was taken as a 100% reference value.

[11] = Hemolysis assay; assay type: cell-based, human; settings: human, erythrocytes (red blood cells); at higher concentrations (400 μM)
Description: as §4, §5

[12] = system: E. coli ATCC 35218; assay type: cell-based, Escherichia coli; settings: ATCC 35218, 24 h
Description: as §1

[13] = system: Yeast; settings: for MIC Average Yeast: 24 h; for TI Yeast, HC50/MIC average: first value of the cell, a single value holds for HC50 and IC50 (400 µM used); for TI Yeast, IC50/MIC average: second value of the cell, HeLa IC50 based
Description: Each inoculum was taken and the cellular concentration was adjusted to 2 × 10^3 CFU/mL in Sabouraud Dextrose Broth (SDB) (Biokar Diagnostics, Cedex, France). Next, 50 µL of these inocula was added to 50 µL of peptide solution in serial 2-fold dilutions. […] The MIC was considered the lowest peptide concentration that inhibited visible growth of each yeast strain. The test was conducted in triplicate.
as §3

[14] = system: C. tropicalis DBFIQ 3; assay type: cell-based, Candida tropicalis; settings: DBFIQ 3, 24 h
Description: (§6) Each inoculum was taken and the cellular concentration was adjusted to 2 × 10^3 CFU/mL in Sabouraud Dextrose Broth (SDB) (Biokar Diagnostics, Cedex, France). Next, 50 µL of these inocula was added to 50 µL of peptide solution in serial 2-fold dilutions. […] […] The test was conducted in triplicate.

[15] = system: C. albicans PEEC 2; assay type: cell-based, Candida albicans; settings: PEEC 2, 24 h
Description: as §6

[16] = system: S. aureus RM * SA1 (Methicillin-resistant Staphylococcus aureus); settings: S. aureus RM * SA1 (MRSA)
[17] = system: trypsin; settings: after 7 h of treatment
Description: (§7) The enzymatic stability of the peptides and lipopeptides was determined by measuring residual antimicrobial activity using the agar diffusion method [42]. To this end, 60 µL of the peptide (treated and untreated) in phosphate buffer (0.1 mM pH: 5.5) was added to a 7 mm well on an agar plate previously seeded with 1 mL of a fresh culture of S. aureus ATCC 25923. The plates were incubated for between 18 and 24 h at 37 °C, and then the inhibition halo diameter was measured. The test was conducted in duplicate.

[18] = system: chymotrypsin
Description: as §7

[19] = Critical micelle concentration by conductimetry in Milli-Q water; assay type: physicochemical; settings: 25 °C
Description: On the other hand, acylation confers that the peptide has capacity to self-assemble into nanostructures, resulting in a surfactant-like structure, which may affect the extent of peptide insertion and disruption of bacterial membrane integrity. In this work, the CMC of the lipopeptides was determined by conductimetry in Milli-Q water. All the lipopeptides adopted a micellar assembly with CMC values ranging from 2.0 to 5.7 mM (Table 1). […] This effect appeared to be more important when substitution by an N-methyl amino acid was performed on amino acids located on the non-polar face of the amphipathic helix (CMC values of C10:0-A2(8-NMePhe) = 2.01 mM). For all the lipopeptides, the CMC values remained above the MIC values, which could indicate that these molecules interact with the cell membrane as monomers and, consequently, that this property would not be necessary for antimicrobial activity. This notion is in concordance with reports in the literature on short cationic lipopeptides.
A lipopeptide solution was prepared in Milli Q water, and the specific conductivity of each lipopeptide solution, in a concentration ranging from 0.06 to 18 mg/mL, was measured using a drop conductivity meter (HORIBA, Kyoto, Japan), at 25 °C. Conductivity values were plotted vs. lipopeptide concentration (mS × cm^−1 vs. mg/mL), and the CMC was graphically determined.

Row | Compound | MIC ([1]; ATCC 25923, 24 h) | remaining at 1 h [3] | MIC ([4]; ATCC 29212, 24 h) | hemolysis [5] | MIC [6] | MIC Average Bacteria Gram (−) [7] | TI Bacteria Gram (−), HC50/MIC average [7] | TI Bacteria Gram (−), IC50/MIC average [7] | MIC Average Bacteria Gram (+) [8] | TI Bacteria Gram (+), HC50/MIC average [8] | TI Bacteria Gram (+), IC50/MIC average [8] | IC50 [9] | reduction of HeLa viability ([9]; HeLa cells, MTT) | HC50 ± SD [10] | MIC [12] | MIC Average Yeast [13] | TI Yeast, HC50/MIC average [13] | MIC [14] | MIC [15] | MIC [16] | also measured
1 | KLFKKLFKKLFK-NH2 [TA4, KLFKKLFKKLFK-NH2] | 2.6 µM | ~40% | 5.1 µM | around 40% | 2.6 µM | 3.9 µM | 102.6 | 11.9 | 6.0 µM | 66.7 | 7.7 | 46.4 ± 10.1 µM | more than 60% | >400 µM | 5.1 µM | 40.8 µM | 9.8 | 40.8 µM | 40.8 µM | 10.2 µM | MIC ([2]; against yeast): 40.8 µM; IC50 ([9]; read-out: IC50 ± SD, HeLa cells, MTT, 3.125–400 μM): 46 µM; hemolysis at 60 min, 400 µM [11]: ~65%; TI Yeast, IC50/MIC average [13]: 1.1
2 | CCCCCCCCCC(=O)N[C@H](C(=O)N[C@H](CCCCN)C(=O)N[C@@H](CCC(N)=O)C(=O)N[C@H](C(=O)N[C@H](CCCCN)C(=O)N[C@H](CCCCN)C(=O)N[C@@H](CC(C)C)C(=O)N[C@@H](Cc1ccccc1)C(=O)N[C@H](CCCCN)C(=O)N[C@H](CCCCN)C(N)=O)C(C)C)[C@@H](C)CC [C10:0-A2(dK), C10:0-IdKQVdKdKLFdKdK-NH2] (Decanoyl-I[dK]QV[dK][dK]LF[dK][dK]-NH2) |  |  |  |  | 1.6 µM (≈ 2.26 µg/mL) | 12.1 µM (≈ 17.1 µg/mL) | 33.1 |  | >90.6 µM | <4.4 |  | > 400 µM |  | >400 µM | 22.6 µM (≈ 31.9 µg/mL) | 135.9 µM (≈ 192 µg/mL) | 2.9 | 181.2 µM (≈ 256 µg/mL) | 90.6 µM (≈ 128 µg/mL) | >90.6 µM | MIC ([1]; S. aureus ATCC 25923): >90.6 µM; MIC ([4]; E. faecalis ATCC 29212): >90.6 µM; retained inhibition activity against S. aureus strain ATCC 25923 [17]: 80%; retained antimicrobial activity ([18]; after 3 h of treatment): 75%; residual antimicrobial activity ([18]; after more than 3 h of treatment, in words): total loss of activity
3 | CCCCCCCCCC(=O)N[C@H](C(=O)N[C@@H](CCCCN)C(=O)N[C@@H](CCC(N)=O)C(=O)N[C@H](C(=O)N[C@@H](CCCCN)C(=O)N[C@@H](CCCCN)C(=O)N[C@@H](CC(C)C)C(=O)N[C@@H](Cc1ccccc1)C(=O)N[C@@H](CCCCN)C(=O)N[C@@H](CCCCN)C(N)=O)C(C)C)[C@@H](C)CC [C10:0-A2, C10:0-IKQVKKLFKK-NH2] (Decanoyl-IKQVKKLFKK-NH2) | 1.4 µM (≈ 1.98 µg/mL) | ~20% | 1.4 µM (≈ 1.98 µg/mL) | around 50% | 1.4 µM (≈ 1.98 µg/mL) | 1.4 µM (≈ 1.98 µg/mL) | 144.9 | 23.3 | 1.9 µM (≈ 2.68 µg/mL) | 106.8 | 17.2 | 32.6 ± 2.49 µM | more than 60% | 202.9 ± 17.5 µM | 1.4 µM (≈ 1.98 µg/mL) | 90.6 µM (≈ 128 µg/mL) | 2.2 | 90.6 µM (≈ 128 µg/mL) | 90.6 µM (≈ 128 µg/mL) | 2.8 µM (≈ 3.96 µg/mL) | MIC ([2]; yeast): 90.6 µM (≈ 128 µg/mL); hemolysis at 60 min, 400 µM [11]: ~45%; TI Yeast, IC50/MIC average [13]: 0.4; CMC [19]: 5.74 mM
